Reference: publication PMC9741287, “Cytotoxic and Luminescent Properties of Novel Organotin Complexes with Chelating Antioxidant Ligand” (Molecules, 2022)
“And” between values parts separate entries of the source, which are not always exact repeats. Equal values may be shown once.

Key:
[1] = target: T1, Soybean lipoxygenase LOX-1B (Glycine max, UniProt P08170); test: Lipoxygenase inhibition assay; format: biochemical; conditions: 3 µL of 1 mM compound in DMSO per 150 µL, 5 min, 20 °C, 234 nm
T1 sequence (P08170 1-839): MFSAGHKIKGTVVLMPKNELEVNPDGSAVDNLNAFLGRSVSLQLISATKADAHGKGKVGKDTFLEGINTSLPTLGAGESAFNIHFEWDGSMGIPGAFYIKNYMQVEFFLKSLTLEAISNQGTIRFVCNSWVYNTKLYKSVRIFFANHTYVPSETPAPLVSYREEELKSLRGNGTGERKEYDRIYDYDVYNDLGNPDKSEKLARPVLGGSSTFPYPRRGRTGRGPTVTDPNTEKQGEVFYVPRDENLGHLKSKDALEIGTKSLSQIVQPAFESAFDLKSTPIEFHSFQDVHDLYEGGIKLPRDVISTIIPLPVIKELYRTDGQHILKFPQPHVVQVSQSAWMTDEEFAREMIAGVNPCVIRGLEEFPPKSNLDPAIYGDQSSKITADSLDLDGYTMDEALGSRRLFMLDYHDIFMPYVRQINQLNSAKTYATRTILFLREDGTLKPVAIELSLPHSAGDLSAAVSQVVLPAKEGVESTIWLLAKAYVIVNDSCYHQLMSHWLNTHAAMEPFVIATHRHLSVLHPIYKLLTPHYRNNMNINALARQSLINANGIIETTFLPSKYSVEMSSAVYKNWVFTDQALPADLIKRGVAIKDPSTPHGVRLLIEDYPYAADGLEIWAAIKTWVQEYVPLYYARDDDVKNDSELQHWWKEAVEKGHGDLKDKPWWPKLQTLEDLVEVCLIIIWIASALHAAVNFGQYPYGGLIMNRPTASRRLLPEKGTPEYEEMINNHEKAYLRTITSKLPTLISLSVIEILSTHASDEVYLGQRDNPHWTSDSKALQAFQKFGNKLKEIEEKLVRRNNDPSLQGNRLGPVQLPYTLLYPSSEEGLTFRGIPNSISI
Excerpt: Lipoxygenases are a group of enzymes catalyzing regioselective oxidation of polyunsaturated fatty acids to corresponding hydroperoxides. […] Soybean lipoxygenase LOX-1B was used as a model enzyme since it is structurally relative to human 5-lipoxygenases. The influence of synthesized compounds 1–7 on the LOX-1B activity was estimated as a formation rate of octadecadienoic acid hydroperoxides (λmax = 234 nm) from the initial acid and was monitored spectrophotometrically (Table 1).
The lipoxygenase activity was evaluated spectrophotometrically. The concentrations of linoleic acid oxidation products, isomeric hydroperoxides, were measured at λmax = 234 nm (ε = 25,000 L mol^−1 cm^−1) with a 96-well microplate spectrophotometer Multiskan Go (Thermo Fisher Scientific, Waltham, MA, USA). The analyzed solution contained 30 µL borate buffer (pH 9.0), 100 µL linoleic acid (0.45 mM) in borate buffer, and 3 µL 1 mM solution of the test compound in DMSO. The reaction was initiated by the addition of 17 µL of lipoxygenase (500 U) solution in borate buffer. The measurements were performed for 5 min at 20 °C.
The inhibition rate I (%) of lipoxygenase was determined by the Equations (2) and (3), where A0 is the absorbance of the control solution, and A1 is the absorbance of the reaction mixture in the presence of the tested compound 5 min after the beginning of the reaction. ΔA is the difference between A1 and A0. All experiments were performed in triplicate.

[2] = Luminescence / photophysical properties; format: physicochemical; conditions: for Quantum Yield, DMSO Solution 10 µM / Quantum Yield, DMSO Solution 100 µM / Quantum Yield, DMSO Solution 1000 µM / Quantum Yield, Powders: λex = 365 nm; for ε (λmax): at absorption λmax; for Luminosity (λmax): at λmax; for Quantum Yield, Powders: solid (compound 4 is an oil)
Description: Their quantum yields reached 20%, which together with their high absorption (Table 4) makes them highly emissive even in powders.
The registration of luminescence spectra of powders and solutions in the visible range as well as the measurement of quantum yields were carried out with Horiba FluoroMax Plus, with xenon lamp as excitation source at room temperature; excitation was performed through a ligand (λex = 365 nm). The quantum yield was measured by the absolute method in the integrating sphere.

[3] = Hydrolysis stability at different pH (UV-vis); format: physicochemical; conditions: phosphate buffer, pH = 5 and pH = 7; absorbance 250–500 nm
Description: Investigations of potential drug pharmacokinetics are an important part of the evaluation of its potential efficacy and applicability. On the base level, this can be studied in vitro as a hydrolysis stability assay at different pH levels. […] The stability of compounds was estimated as an optical density drop at λ = 250–500 nm at pH = 5 and pH = 7 (Figure 3 and Figure 4).
The stability of synthesized compounds was estimated spectrophotometrically. To 1.5 mL of either phosphate buffer with pH = 5.0 or phosphate buffer with pH = 7.4, 300 µL of 2 mM test solution in MeOH was added. Then adsorption spectra at λ = 250–500 nm were recorded for 20 h. Graphs were built using OriginPro 2019b.

| Compound | I (LOX Inhibition Assay) [1] [%] | λmax (absorption) [2] [nm] | Quantum Yield, DMSO Solution 10 µM [2] [%] | Quantum Yield, DMSO Solution 100 µM [2] | Quantum Yield, DMSO Solution 1000 µM [2] | ε (λmax) [2] | Luminosity (λmax) [2] | Quantum Yield, Powders [2] | Luminosity (λ = 365 nm) [2] | ε (λ = 365 nm) [2] [M⁻¹ cm⁻¹] | inhibition at 1000 µM (stock) ([1]; read-out: I (LOX Inhibition Assay)) [%] | Time after which decomposition (hydrolysis) is seen [3] |
| --- | --- | --- | --- | --- | --- | --- | --- | --- | --- | --- | --- | --- |
| CC(C)(C)c1cc(C2=NN=Cc3ccccc3[O][Sn]([CH3])([CH3])[O]2)cc(C(C)(C)C)c1O [Compound 2, Me2SnL] | 57.1 ± 4.7 | 403 | 17 ± 3 | 56 ± 1% | 39% and 39 ± 3% | 13,070 M^−1·cm^−1 | 771,130, (403) M^−1·cm^−1 | 14 ± 2% | 508,403 M^−1·cm^−1 | 8617 | – | – |
| C[CH2][Sn]1([CH2]C)[O]C(c2cc(C(C)(C)C)c(O)c(C(C)(C)C)c2)=NN=Cc2ccccc2[O]1 [Compound 3, Et2SnL] | 61.1 ± 5.1 | 410 | 17 ± 2 | 45 ± 1% | 30 ± 2% | 14,020 M^−1·cm^−1 | 658,940, (410) M^−1·cm^−1 | 14 ± 2% | 210,983 M^−1·cm^−1 | 4489 | – | – |
| CC(C)(C)c1cc(C2=NN=Cc3ccccc3[O][Sn]([c]3cc(C(C)(C)C)c(O)c(C(C)(C)C)c3)([c]3cc(C(C)(C)C)c(O)c(C(C)(C)C)c3)[O]2)cc(C(C)(C)C)c1O [Compound 7, (2,6-Di-tert-butylphenol)2SnL] | 66.0 ± 5.9 | 402 | 21 ± 2 | 42 ± 1% | 32 ± 2% | 13,270 M^−1·cm^−1 | 557,340, (402) M^−1·cm^−1 | 20% and 20 ± 2% | 294,084 M^−1·cm^−1 | 7002 | – | – |
| CC(C)(C)c1cc(C2=NN=Cc3ccccc3[O][Sn]([C](C)(C)C)([C](C)(C)C)[O]2)cc(C(C)(C)C)c1O [Compound 5, Bu^t2SnL] | 61.4 ± 5.3 | 412 | 20 ± 2 | 37 ± 1% | 29 ± 2% | 9920 M⁻¹ cm⁻¹ | – | 8 ± 1% | 206,360 M^−1·cm^−1 | 3080 | – | – |
| CCC[CH2][Sn]1([CH2]CCC)[O]C(c2cc(C(C)(C)C)c(O)c(C(C)(C)C)c2)=NN=Cc2ccccc2[O]1 [Compound 4, Bu2SnL] | 47.5 ± 3.8 | 409 | 41 ± 3 | 67% and 66 ± 2% | 36 ± 3% | 5950 M⁻¹ cm⁻¹ | 398,650, (409) M^−1·cm^−1 | 4 ± 3% | 146,127 M^−1·cm^−1 | 2181 | – | – |
| CC(C)(C)c1cc(C2=NN=Cc3ccccc3[O][Sn]([c]3ccccc3)([c]3ccccc3)[O]2)cc(C(C)(C)C)c1O [Compound 6, Ph2SnL] | 44.9 ± 3.7 | 393 | 25 ± 2 | 67 ± 2% | 26 ± 2% | 13,450 M^−1·cm^−1 | – | 6 ± 2% | 333,370 M^−1·cm^−1 | 9010 | – | – |
| CC(C)(C)c1cc(C(=O)N/N=C/c2ccccc2O)cc(C(C)(C)C)c1O [Compound 1, Di-tert-butyl-4-hydroxy-N′-(2-hydroxybenzylidene)-benzohydrazine] | – | – | – | – | – | – | – | – | – | – | 51.7 ± 4.2 | approximately 1 h |
